In brackets after ≈: the same amount, converted by molar mass. Where a SMILES comes first, the peptide text is derived from it.
Key:
[1] = test system: Shigella flexneri ATCC 112022
[2] = test system: Acinetobacter baumanii clinical strains; format: cell-based
Experimental: A volume of 3 μl of each concentration of antibiotic was deposited on the agar media: • MH: for the non-exigent strains, • MH+5% sheep blood: for the streptococci, Listeria, Bacillus and Neisseria, • HTM: for the Haemophilus. […]

[3] = test system: Enterobacter aerogenes clinical strains; format: cell-based
[4] = test system: Escherichia coli ATCC 25922; format: cell-based
[5] = test system: Shigella sonnei ATCC 25931
Experimental: The MIC values were determined by the method of microdilution in liquid medium (NCCLS M7A5) for all of the bacterial species on 96-well polystyrene plates.
The culture medium was Mueller-Hinton broth (MHB) (pH≈7.2-7.4) with supplements according to the bacterial species studied: • MHB alone for the non-exigent species, • MHB+3% lysed horse blood for the streptococci, Listeria and Neisseria, • MHB+hemin 15 mg/l+NAD 15 mg/l+yeast extract 5 g/l for Haemophilus.
The bacterial inoculum was prepared from re-isolation performed on: • CLED agar: non-exigent strains, • blood agar+5% goat blood: streptococci, Listeria and Neisseria • chocolate agar+5% goat blood: Haemophilus, Neisseria.
The final inoculum was at ≈5·10^5 cfu/ml (colony forming units). 50 μl of bacterial inoculum was distributed per well containing an equal volume of the peptide solution diluted by half in the appropriate culture medium depending on the bacterial species (0.5 to 512 μg/ml). The cultures were incubated at 35° C. in ambient air for 16 to 20 hours (20 to 24 h for the streptococci).
Determination of the MBC values was performed after inhibition and reading of the MIC plates:
A volume of 3 μl of each concentration of antibiotic was deposited on the agar media: • MH: for the non-exigent strains, • MH+5% sheep blood: for the streptococci, Listeria, Bacillus and Neisseria, • HTM: for the Haemophilus.
The agars were incubated for 18 h at 35° C. in atmosphere: • in ambient air: for the non-exigent strains, • with 5-6% of CO2: for the streptococci, Listeria, Haemophilus and Neisseria.
The MBC is the lowest concentration of antibiotic that inhibits all bacterial growth on the transplant agar (<0. 1% of survivors).

[6] = In vivo toxicity: maximal tolerated dose (MTD); conditions: mouse, female OFI mice, intravenous perfusion approx. 15 minutes, 28 days after an injection
Experimental: The maximal tolerated dose (MTD) for each peptide was determined on female OFI mice at 28 days after an injection. The MTD was defined as the maximal nonlethal dose that could be injected. The peptides were administered by the intravenous route as a perfusion of approximately 15 minutes duration. The injection volume was 10 μl/g, the perfusion rate was 1.2 ml/hour and the excipient was a solution of NaCl at 0.8%.

[7] = test system: Streptococcus pneumoniae ATCC 49619; format: cell-based
[8] = test system: Streptococcus pneumoniae ATCC 6303; format: cell-based
[9] = test system: Enterococcus faecalis ATCC 29212; format: cell-based
[10] = test system: Streptococcus pyogenes ATCC 19615; format: cell-based
[11] = test system: Haemophilus influenzae ATCC 49247; format: cell-based
[12] = test system: Salmonella typhimurium ATCC 14028; format: cell-based
[13] = test system: Staphylococcus epidermidis ATCC 12228; format: cell-based
[14] = test system: Staphylococcus aureus ATCC 14154; format: cell-based
[15] = test system: Klebsiella pneumoniae ATCC 13883; format: cell-based
[16] = test system: Enterococcus faecalis ATCC 19433; format: cell-based
[17] = test system: Listeria monocytogenes ATCC 19115; format: cell-based
[18] = test system: Enterobacter aerogenes ATCC 13048; format: cell-based
[19] = test system: Enterococcus faecium ATCC 35667; format: cell-based
[20] = test system: Proteus vulgaris ATCC 13315; format: cell-based
[21] = test system: Escherichia coli ATCC 35218; format: cell-based
[22] = in vitro; conditions: human, human plasma
Experimental: The stability was determined at 37° C. After 0, 0.5, 1, 2, 4 and 6 hours, 3×200 μl were collected and added to 10 μl of internal standard (peptide no. 1) at 500 μM in water, to which 800 μl of 0.1% trifluoroacetic acid (TFA) in water was added. A volume of 1 ml of this mixture was deposited on resin C2 (EC) that had previously been equilibrated with 1 ml of 0.1% TFA in water, 1 ml of 0.1% TFA in acetonitrile and 1 ml of 0.1% TFA in water. After two washings with 1 ml of 0.1% TFA in water, the elution of peptide and of its metabolites was induced by 1 ml of 0.1% TFA in methanol. This was then dried under a stream of air and taken up in 200 μl of 0.1% TFA in water. A volume of 100 μl was analyzed by HPLC on a Luna C1 8(2) column, 3 μg, 4.6×100 mm (Phenomenex) with 0.1% TFA in water as solvent A and 0.1% TFA in acetonitrile as solvent B. A gradient of 15-45% of B in 12 minutes was used for the elution with a flow rate of 1.2 ml/min; detection was performed at 214 nm.

[23] = test system: Bacillus cereus ATCC 11778; format: cell-based
[24] = test system: Acinetobacter baumanii ATCC 19606; format: cell-based
[25] = test system: Bacillus subtilis ATCC 6633; format: cell-based
[26] = test system: C. neoformans Cn52D; format: cell-based, Cryptococcus neoformans
Experimental: D. Determination of the miminimal inhibitory concentration (MIC) in liquid medium for the Filamentous Fungi and Yeast
Peptide concentrations tested: from 0.2 μg/ml to 100 μg/ml.

[27] = test system: Micrococcus luteus ATCC 9341; format: cell-based
[28] = test system: Serratia marcescens ATCC 8100; format: cell-based
[29] = test system: Streptococcus agalactiae ATCC 13813; format: cell-based
[30] = test system: Staphylococcus aureus ATCC 25923; format: cell-based
[31] = test system: Enterobacter cloacae ATCC 23355; format: cell-based
[32] = test system: Neisseria sica ATCC 9913; format: cell-based
[33] = test system: Pseudomonas aeruginosa ATCC 27853; format: cell-based
[34] = test system: Citrobacter freundii ATCC 8090; format: cell-based

**Q.** For CC(C)C[C@H](NC(=O)[C@H](CCCCN)NC(=O)[C@H](C)NC(=O)[C@H](CC(C)C)NC(=O)[C@@H](N)CCCCN)C(=O)N[C@@H](C)C(=O)N[C@@H](CCCCN)C(=O)N[C@@H](CCCCN)C(=O)N[C@@H](CC(C)C)C(=O)N[C@@H](C)C(=O)N[C@@H](CCCCN)C(=O)N[C@@H](CC(C)C)C(=O)N[C@@H](C)C(=O)N[C@@H](CCCCN)C(=O)N[C@@H](CCCCN)C(=O)N[C@@H](Cc1c[nH]cn1)C(=O)N[C@@H](CC(C)C)C(=O)N[C@@H](CCCCN)C(=O)N[C@@H](CCCCN)C(=O)N[C@@H](Cc1c[nH]cn1)C(=O)N[C@@H](CC(C)C)C(=O)N[C@@H](CCCCN)C(=O)N[C@@H](CCCCN)C(=O)N[C@@H](Cc1c[nH]cn1)C(=O)N[C@@H](CC(C)C)C(=O)N[C@@H](CCCCN)C(=O)O [Peptide 2] (H-KLAKLAKKLAKLAKKHLKKHLKKHLK-OH; N-terminus and C-terminus assumed), which MBC [1] is on record?
**A.** 2 µg/mL (≈ 0.657 µM)

**Q.** What about the MIC [1] of the same compound?
**A.** 2 µg/mL (≈ 0.657 µM)

**Q.** And the MIC [2]?
**A.** 2 µg/mL (≈ 0.657 µM)

**Q.** What about the MBC [3] of the same compound?
**A.** 8 µg/mL (≈ 2.63 µM)

**Q.** What about the MBC [4] of the same compound?
**A.** 2 µg/mL (≈ 0.657 µM)

**Q.** And the MIC [4]?
**A.** 2 µg/mL (≈ 0.657 µM)

**Q.** What about the MBC [5] of the same compound?
**A.** 2 µg/mL (≈ 0.657 µM)

**Q.** What about the MIC [5] of the same compound?
**A.** 2 µg/mL (≈ 0.657 µM)

**Q.** What about the MTD at 28 days [6] of the same compound?
**A.** 13.5 mg/kg

**Q.** And the MBC [7]?
**A.** 256 µg/mL (≈ 84.1 µM)

**Q.** And the MIC [7]?
**A.** 16 µg/mL (≈ 5.26 µM)

**Q.** And the MBC [8]?
**A.** 128 µg/mL (≈ 42.1 µM)

**Q.** What about the MIC [8] of the same compound?
**A.** 32 µg/mL (≈ 10.5 µM)

**Q.** And the MBC [9]?
**A.** 32 µg/mL (≈ 10.5 µM)

**Q.** What about the MIC [9] of the same compound?
**A.** 32 µg/mL (≈ 10.5 µM)

**Q.** What about the MBC [10] of the same compound?
**A.** 8 µg/mL (≈ 2.63 µM)

**Q.** What about the MIC [10] of the same compound?
**A.** 8 µg/mL (≈ 2.63 µM)

**Q.** And the MBC [11]?
**A.** 32 µg/mL (≈ 10.5 µM)

**Q.** And the MIC [11]?
**A.** 32 µg/mL (≈ 10.5 µM)

**Q.** And the MBC [12]?
**A.** 4 µg/mL (≈ 1.31 µM)

**Q.** And the MIC [12]?
**A.** 4 µg/mL (≈ 1.31 µM)

**Q.** What about the MBC [13] of the same compound?
**A.** 2 µg/mL (≈ 0.657 µM)

**Q.** And the MIC [13]?
**A.** 2 µg/mL (≈ 0.657 µM)

**Q.** And the MBC [14]?
**A.** 64 µg/mL (≈ 21 µM)

**Q.** What about the MIC [14] of the same compound?
**A.** 32 µg/mL (≈ 10.5 µM)

**Q.** What about the MBC [15] of the same compound?
**A.** 32 µg/mL (≈ 10.5 µM)

**Q.** And the MIC [15]?
**A.** 32 µg/mL (≈ 10.5 µM)

**Q.** And the MBC [16]?
**A.** 128 µg/mL (≈ 42.1 µM)

**Q.** What about the MIC [16] of the same compound?
**A.** 64 µg/mL (≈ 21 µM)

**Q.** What about the MBC [17] of the same compound?
**A.** 2 µg/mL (≈ 0.657 µM)

**Q.** What about the MIC [17] of the same compound?
**A.** 2 µg/mL (≈ 0.657 µM)

**Q.** What about the MBC [18] of the same compound?
**A.** 16 µg/mL (≈ 5.26 µM)

**Q.** What about the MIC [18] of the same compound?
**A.** 16 µg/mL (≈ 5.26 µM)

**Q.** What about the MBC [19] of the same compound?
**A.** 32 µg/mL (≈ 10.5 µM)

**Q.** What about the MIC [19] of the same compound?
**A.** 16 µg/mL (≈ 5.26 µM)

**Q.** What about the MBC [20] of the same compound?
**A.** 4 µg/mL (≈ 1.31 µM)

**Q.** What about the MIC [20] of the same compound?
**A.** 4 µg/mL (≈ 1.31 µM)

**Q.** What about the MBC [21] of the same compound?
**A.** 2 µg/mL (≈ 0.657 µM)

**Q.** And the MIC [21]?
**A.** 2 µg/mL (≈ 0.657 µM)

**Q.** What about the metabolised at 6 h, 50 µM [22] of the same compound?
**A.** ≤ 41%

**Q.** And the MBC [23]?
**A.** 8 µg/mL (≈ 2.63 µM)

**Q.** What about the MIC [23] of the same compound?
**A.** 8 µg/mL (≈ 2.63 µM)

**Q.** And the MBC [24]?
**A.** 2 µg/mL (≈ 0.657 µM)

**Q.** And the MIC [24]?
**A.** 2 µg/mL (≈ 0.657 µM)

**Q.** And the MBC [25]?
**A.** 8 µg/mL (≈ 2.63 µM)

**Q.** And the MIC [25]?
**A.** 8 µg/mL (≈ 2.63 µM)

**Q.** And the MIC [26]?
**A.** 1.56 µg/mL (≈ 0.512 µM)

**Q.** And the MBC [27]?
**A.** 4 µg/mL (≈ 1.31 µM)

**Q.** And the MIC [27]?
**A.** 4 µg/mL (≈ 1.31 µM)

**Q.** And the MBC [28]?
**A.** >512 µg/mL

**Q.** And the MIC [28]?
**A.** >512 µg/mL

**Q.** What about the MBC [29] of the same compound?
**A.** 8 µg/mL (≈ 2.63 µM)

**Q.** And the MIC [29]?
**A.** 8 µg/mL (≈ 2.63 µM)

**Q.** And the MBC [30]?
**A.** 32 µg/mL (≈ 10.5 µM)

**Q.** And the MIC [30]?
**A.** 16 µg/mL (≈ 5.26 µM)

**Q.** What about the MBC [31] of the same compound?
**A.** 2 µg/mL (≈ 0.657 µM)

**Q.** And the MIC [31]?
**A.** 2 µg/mL (≈ 0.657 µM)

**Q.** And the MBC [32]?
**A.** 0.5 µg/mL (≈ 0.164 µM)

**Q.** What about the MIC [32] of the same compound?
**A.** 0.5 µg/mL (≈ 0.164 µM)

**Q.** What about the MBC [33] of the same compound?
**A.** 8 µg/mL (≈ 2.63 µM)

**Q.** And the MIC [33]?
**A.** 8 µg/mL (≈ 2.63 µM)

**Q.** And the MBC [34]?
**A.** 8 µg/mL (≈ 2.63 µM)

**Q.** And the MIC [34]?
**A.** 8 µg/mL (≈ 2.63 µM)

From patent US7884070B2, “Linear cationic peptides having antibacterial and/or antifungal properties” (priority 2002, dated 2011)
